The text below walks through data of US20090142347A1, “Tissue-Nonspecific Alkaline Phosphatase (TNAP): a Therapeutic Target for Arterial Calcification” (THE BURNHAM INSTITUTE FOR MEDICAL RESEARCH, priority 2004, published 2009).

SMILES strings stand for the structures.

Assay in all cases: biochemical
Experiment [1] addresses hTNALP N168 (Homo sapiens, UniProt P05186, D185N).
For experiment [2], the target named is hTNALP Q434 (Homo sapiens, UniProt P05186, H451Q).
Experiment [3] addresses hTNALP (D433, E434) (Homo sapiens, UniProt P05186, H451E/R450D).
The target in experiment [4] is hTNALP G434 (Homo sapiens, UniProt P05186, H451G).
Experiment [5] deals with hTNALP A433 (Homo sapiens, UniProt P05186, R450A).
Experiment [6] addresses hTNALP S434 (Homo sapiens, UniProt P05186, H451S).
Experiment [7] has as its target hTNALP A120 (Homo sapiens, UniProt P05186, S137A).
In experiment [8] the target is hTNALP (F104, Q109) (Homo sapiens, UniProt P05186, E125F/G126Q).
In experiment [9] the target is hTNALP A166 (Homo sapiens, UniProt P05186, D183A).
Experiment [10] concerns the target hTNALP A371 (Homo sapiens, UniProt P05186, Y388A).
Experiment [11] deals with hTNALP N166 (Homo sapiens, UniProt P05186, D183N).
Experiment [12] deals with hTNALP Q109 (Homo sapiens, UniProt P05186, G126Q).
hTNALP Q109, sequence (P05186 18-501 G126Q): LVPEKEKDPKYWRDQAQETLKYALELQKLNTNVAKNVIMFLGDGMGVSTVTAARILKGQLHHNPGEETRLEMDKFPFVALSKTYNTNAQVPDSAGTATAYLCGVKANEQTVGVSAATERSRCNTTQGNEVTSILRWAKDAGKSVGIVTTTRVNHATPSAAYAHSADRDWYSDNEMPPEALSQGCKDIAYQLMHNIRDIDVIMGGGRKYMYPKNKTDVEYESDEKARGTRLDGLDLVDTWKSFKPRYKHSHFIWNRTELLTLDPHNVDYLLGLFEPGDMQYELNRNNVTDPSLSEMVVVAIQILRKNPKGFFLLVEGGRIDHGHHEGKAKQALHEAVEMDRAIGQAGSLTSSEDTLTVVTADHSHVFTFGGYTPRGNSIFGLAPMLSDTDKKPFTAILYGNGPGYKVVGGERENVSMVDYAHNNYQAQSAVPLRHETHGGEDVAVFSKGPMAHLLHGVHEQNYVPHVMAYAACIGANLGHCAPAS

hTNALP A166, sequence (P05186 18-501 D183A): as the sequence (P05186 18-501 G126Q) above, with Q109G, D166A counted along it
hTNALP N166, sequence (P05186 18-501 D183N): as the sequence (P05186 18-501 G126Q) above, with Q109G, D166N counted along it
hTNALP A433, sequence (P05186 18-501 R450A): as the sequence (P05186 18-501 G126Q) above, with Q109G, R433A counted along it
hTNALP A371, sequence (P05186 18-501 Y388A): as the sequence (P05186 18-501 G126Q) above, with Q109G, Y371A counted along it
hTNALP Q434, sequence (P05186 18-501 H451Q): as the sequence (P05186 18-501 G126Q) above, with Q109G, H434Q counted along it
hTNALP G434, sequence (P05186 18-501 H451G): as the sequence (P05186 18-501 G126Q) above, with Q109G, H434G counted along it
hTNALP S434, sequence (P05186 18-501 H451S): as the sequence (P05186 18-501 G126Q) above, with Q109G, H434S counted along it
hTNALP N168, sequence (P05186 18-501 D185N): as the sequence (P05186 18-501 G126Q) above, with Q109G, D168N counted along it
hTNALP A120, sequence (P05186 18-501 S137A): as the sequence (P05186 18-501 G126Q) above, with Q109G, S120A counted along it
hTNALP (F104, Q109), sequence (P05186 whole entry E125F/G126Q): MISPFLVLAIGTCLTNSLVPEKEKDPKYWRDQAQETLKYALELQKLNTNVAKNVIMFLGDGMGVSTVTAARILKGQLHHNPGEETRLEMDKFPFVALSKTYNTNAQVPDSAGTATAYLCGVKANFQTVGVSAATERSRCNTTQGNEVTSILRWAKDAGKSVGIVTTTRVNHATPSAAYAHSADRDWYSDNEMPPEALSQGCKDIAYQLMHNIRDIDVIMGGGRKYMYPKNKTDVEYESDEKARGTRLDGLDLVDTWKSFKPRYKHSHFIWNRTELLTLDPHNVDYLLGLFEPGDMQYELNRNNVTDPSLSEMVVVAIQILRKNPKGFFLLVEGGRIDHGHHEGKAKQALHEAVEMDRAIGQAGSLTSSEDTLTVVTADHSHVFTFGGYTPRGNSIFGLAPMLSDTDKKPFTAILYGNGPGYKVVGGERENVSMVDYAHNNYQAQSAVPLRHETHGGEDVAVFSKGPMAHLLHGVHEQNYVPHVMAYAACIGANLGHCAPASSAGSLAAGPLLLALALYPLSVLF
hTNALP (D433, E434), sequence (P05186 18-501 R450D/H451E): as the sequence (P05186 18-501 G126Q) above, with Q109G, R433D, H434E counted along it

One may read the Ki as a measure of affinity in units of concentration, obtained from inhibition or displacement. Low values mean tighter binding, high ones weaker binding. As to `N=C(N)NCCCC[C@H](N)C(=O)O` [L-hArg, L-homoarginine], the Ki in experiment [1] was 1.8 ± 0.1 mM; in [2], 2 ± 0.1 mM; in [3], 13 ± 1.6 mM; in experiment [4], 1.6 ± 0.2 mM; in [5] it was 1.6 ± 0.2 mM; in experiment [6], 1.6 ± 0.1 mM. In addition, the Ki was 1.4 ± 0.1 mM in experiment [7]; 15 ± 2 mM in [8]; 1.6 ± 0.3 mM in experiment [9]; 31 ± 3 mM in [10]; 1.8 ± 0.1 mM in experiment [11]; 1.6 ± 0.1 mM in experiment [12].
As to `N[C@@H](Cc1ccccc1)C(=O)O` [L-Phe, L-phenylalanine], the Ki in experiment [1] was 42 ± 6 mM; in [2], 9.8 ± 1 mM; in experiment [4], 9.6 ± 1 mM; in experiment [5], 31 ± 3 mM; in experiment [6] it was 13 ± 2 mM; in experiment [7] it was 24 ± 2 mM. For the same compound, the Ki in experiment [8] stood at 2.1 ± 0.4 mM; in experiment [9] it was 24 ± 4 mM; in [10] it was 65 ± 24 mM; in [11], 32 ± 5 mM; in [12], 4 ± 1.1 mM.
